{"source": "patent US9820968B2", "about": "“Anti-leukemic agent useful for inducing differentiation in myeloid leukemia cells” (Council of Scientific and Industrial Research, priority 2013, dated 2017)", "key": {"[1]": {"test_system": "HL60 cells", "test": "FACS flow cytometry for cd11b in HL60 cells (differentiation control)", "assay_type": "cell-based", "details": "HL60, 1 uM ATRA, 72 hrs", "method": "(§1) K562 cells were treated with 1 μM (Subapoptotic dose) and 7.5 μM ORM (Apoptotic dose) for 24 h and 48 hrs. Post 24 h and 48 h treatment, cells were analyzed in FACS-flow cytometer for the presence of myeloid differentiation marker cd11b (FIG. 2). In parallel, HL60 cells were also treated with 1uM All-Trans-Retinoic Acid (ATRA) for 72 hrs which served as control for induction of differentiation. […] Isotype IgG-PE antibody served as negative control."}, "[2]": {"test_system": "myeloid leukemia cells (U937, HL60, K562)", "test": "MTT cell viability assay, myeloid leukemia cells", "assay_type": "cell-based", "details": "leukemic cells (U937, HL60, K562), read-out: 50% growth inhibitory concentration (IC50)", "method": "FIG. 1: ORM induces cell toxicity in myeloid leukemia cells: (a) Chemical structure of ormeloxifene. […] Assay was performed on 3 replicates for each treatment and repeated twice.\n(§2) 2. MTT assay: Post 6 h synchronization, 1×10^4 cells per well were incubated at 37° C. in 96-well plastic plates with test drugs containing 10% FBS in an environment of 5% humified CO2. After 48 hrs, cell viability was assessed by the ability of metabolically active cells to reduce tetrazolium salt […] to coloured formazan compounds. The absorbance of the samples was measured with a specific enzyme-linked immunosorbent assay (ELISA) reader at 560 nm.\n(§3) To calculate 50% growth inhibitory concentration (IC50) of ormeloxifene, various myeloid leukemia cells (U937, HL60, K562) and HEK293T as control were assayed with different doses of ormeloxifene for cell viability in MTT Assay. […] Various apoptosis assays were performed in myeloid leukemia cells upon treatment with ormeloxifene that induces G0-G1 phase growth arrest and caspase mediated apoptosis in myeloid leukemia via ERK activation."}, "[3]": {"test_system": "HEK293T", "test": "MTT cell viability assay, HEK293T control", "assay_type": "cell-based", "details": "Homo sapiens, HEK-293T, 293T control cells, 48 hrs, read-out: 50% growth inhibitory concentration (IC50)", "method": "as §2, §3"}, "[4]": {"test_system": "K562 cells", "test": "FACS flow cytometry for cd11b in K562 cells", "assay_type": "cell-based", "details": "24 and 48 h", "method": "(§4) 7. FACS analysis: Cells were treated with 1 uM ORM for 24 h and 48 h. Then they were washed with 1×PBS and resuspended in antibody solution along with their respective IgG isotype control for 15-20 min as per manufacturer's protocol. Cells were washed once with PBS and were resuspended in 500 ul of PBS. After this flow cytometry was done for PI labeled cells for cd11b and cd114 differentiation markers (BD Biosciences).\nas §1"}, "[5]": {"test_system": "K562 cells", "test": "Giemsa staining morphology, K562 cells", "assay_type": "cell-based", "method": "(§5) 3. Giemsa staining: Giemsa stain is used to differentiate nuclear and cytoplasmic morphology of blood cells. After induction with 1 uM ORM for 12 days cells were cytospun on slides at 800 rpm for 5 min and were air dried. Cells were stained with Giemsa stain (Sigma) as per manufacturer's protocol. Cells were visualized microscopically for the morphological changes.\nTo further corroborate the differentiation inducing potential of ORM, K562 cells were again treated with 1.0 uM ORM and vehicle for 12 days followed by cytospin and staining with Giemsa for assessment of morphological changes. […] It is noteworthy to mention here that at higher doses (5 uM to 7.5 uM) there is early onset of myeloid differentiation (72 h for 5 uM and 24,48 h for 7.5 uM) with reduced no. of cells which is likely due to apoptotic effects of ORM at higher dose. In contrary, at lower doses (1 uM) differentiation is observed after longer duration (6-15 days) with quite reduced apoptotic effect."}, "[6]": {"test_system": "K562 cells", "test": "NBT reduction assay, K562 cells", "assay_type": "cell-based", "details": "K562, 7.5 uM ORM 24 h and 48 hrs, 1 uM 6 days", "method": "4. NBT assay: The NBT Assay relies on the accumulation of blue black formazan precipitate. The membrane permeable, water soluble, yellow NBT is reduced to blue black formazan by O^−2, which is generated by activated neutrophils/phagocytes, typically by PMA. PMA activates NADPH oxidase by enhancing protein kinase C (PKC) and thus stimulates production of ROS (reactive oxygen species). After induction with 7.5 uM ORM for 24 h and 48 hr and with 1 uM ORM for 6 days cells were incubated in NBT solution for 15 min. at 37° C. Cells were washed with PBS and were resuspended in 500 ul PBS and cytospun on slides and stained with safranin O for 1 min. Number of cells showing blue-purple colouration were counted under microscope.\nIn order to further confirm the ORM induced differentiation in myeloid leukemia cells, Nitro Blue Tetrazolium (NBT) reduction assay is carried out which is a biochemical assay wherein activated granulocytes can reduce NBT to insoluble purple blue colour precipitates. Further, because ORM induces apoptosis at 7.5 uM in K562 cells; we treated K562 cells with 7.5 uM for 24 h and 48 hrs and 1 uM doses for longer duration, 6 days. Cells were subjected for NBT reduction analysis. […] This further confirmed differentiation inducing potential of ORM."}, "[7]": {"test_system": "K562 cells", "test": "ROS generation by flow cytometry (DCF-DA), K562 cells", "assay_type": "cell-based", "details": "K562, 1 uM ORM", "method": "FIG. 5: ORM at a dose of 1 uM induces ROS generation: A property of activated neutrophils: Flow cytometry analysis was performed for the ROS generation in K562 cells after treatment with 1 uM ORM for 24 h and 48 h. Cells were labeled with DCF-DA dye and fluorescence was measured.\nFurthermore, ORM induces granulocytic differentiation in K562 cells, it should lead to terminal differentiation of these cells to activated neutrophils. To substantiate further the induction of granulocytic differentiation and neutrophil formation, we measured the ROS generation, which is a property of activated neutrophils by FACS flow cytometer."}, "[8]": {"test_system": "K562 cells", "test": "Real time and semi quantitative PCR of differentiation markers, K562 cells", "assay_type": "cell-based", "method": "5. Quantitative PCR (Real Time) and semi quantitative PCR Analysis: After induction of cells with ORM for indicated time points cells were harvested and RNA was isolated using Trizol reagent. Trizol was added to 1×10^6 cells for 5 min at room temp. Lysed cells were collected in micro centrifuge tubes and shaken vigorously for 15 sec, and incubated for 3 min at RT. 200 μl of chloroform was added to each sample and incubated yet again for 5 min at RT. Cells were centrifuged at 15,000 rpm for 15 min at 4° C. Supernatant was collected in fresh tube; 1 ml isopropanol was added and incubated for 10 min at RT. Pellet was washed once with 70% ethanol and RNA concentration was quantified. Further, RNA was retro-transcribed into cDNA and subsequently used for quantitative PCR analysis on Roche Light Cycler 480 using SYBR green master mix from Applied Biosystems. Statistical analysis was performed using ΔΔCT method. Reverse transcriptase PCR was done to check the mRNA level expression of GCSFr qualitatively. RT-PCR analysis was performed using standardized PCR protocol on BioRad C1000 Thermal Cycler."}, "[9]": {"test_system": "primary cells isolated from CML patients", "test": "FACS for cd11b and cd114 in primary mononuclear cells from CML patients", "assay_type": "cell-based, human", "details": "CML patient mononuclear cells, 1 uM ORM, 24 and 48 hr", "method": "FIG. 6: ORM induces myeloid differentiation in primary cells isolated from CML patients PBMCs were isolated from patient samples and were analyzed by FACS for cd11b positive cells.\n6. PBMC separation from patient sample: 10 ml peripheral blood was collected by venipuncture heparin-containing 20 ml vials. Peripheral blood mononuclear cells were isolated using density gradient centrifugation with Ficoll-Paque (1.077 g/ml). Peripheral blood was mixed in 1:1 v/v of MACS buffer and was fractionated through Ficoll-Paque. Mononuclear cells were collected from the interface, washed twice in MACS buffer and resuspended in RPMI 1640 at 37° C. in the humidified atmosphere of 5% CO2.\nas §4, with “After this flow cytometry was done for PI labeled cells for cd11b and cd114 differentiation markers (BD Biosciences).” left out\nAlthough recent studies using differentiation therapies in oncology have been successful for acute promyelocytic leukemia (APL) with the use of all-trans retinoic acid (ATRA) (S. Waxman, Leukemia, 2000, 14(3):491-496), little is known about exact mechanisms of differentiation. […] Cells were treated with 1 uM ORM and were analyzed for expression of cd11b and cd114 surface markers after 24 and 48 hr."}, "[10]": {"test_system": "HL60 cells", "test": "Morphology after long ORM treatment, HL60 cells", "assay_type": "cell-based", "details": "HL60, 1 uM ORM, 12 and 15 days", "method": "(§6) FIG. 7: ORM at 1 uM dose induces differentiation like morphology both in HL60 and U937 cells: (a) HL60 and (b) U937 cells were treated with 1 uM ORM for 12 and 15 days and there was change in the morphology of cells by decrease in the nuclear and cytoplasmic ratio and formation of multilobed nuclei which is typical for neutrophilic differentiation.\nas §5\n(§7) Profound granulocytic differentiation inducing property of ormeloxifene in K562 prompted us to investigate if ORM can also induce such differentiation in other myeloid leukemia cell lines. So we further chose HL60 and U937, a promyelocyte and myelomonocyte leukemia cell line. These cells differentiate to granulocyte lineage upon induction with all trans-retinoic acid (ATRA) and represent a very good model cell line for such differentiation assays. These cells were treated with 1 uM ORM for longer duration of 12 and 15 days followed by assessment of granulocytic/neutrophil like morphology."}, "[11]": {"test_system": "U937 cells", "test": "Morphology after long ORM treatment, U937 cells", "assay_type": "cell-based", "details": "U937, 1 uM ORM, 12 and 15 days", "method": "as §6, §5, §7"}, "[12]": {"test_system": "HL60, U937 and K562 cells", "details": "P. Pal et al., Proteomics 2011, read-out: IC50 inducing apoptosis; cited from earlier work"}, "[13]": {"test_system": "advanced breast cancer", "details": "cited from earlier work"}, "[14]": {"test_system": "Salmonella", "details": "Giri et al., Mutagenesis 1999; cited from earlier work"}, "[15]": {"details": "K562, 1 uM ORM, 24 and 48 h, real time PCR"}}, "note": "Where two headings read alike, the source gives them in different places.", "data": [{"smiles": "CC1=C(/C=C/C(C)=C/C=C/C(C)=C/C(=O)O)C(C)(C)CCC1", "note": "[ATRA, All-Trans-Retinoic Acid]", "values": [{"measurement": "cd11b early myeloid differentiation marker", "setting": "[1]", "result": "increased"}]}, {"smiles": "COc1ccc2c(c1)OC(C)(C)C(c1ccccc1)C2c1ccc(OCCN2CCCC2)cc1", "note": "(stereo not drawn) [ORM, 3,4-trans-2,2-dimethyl-3-phenyl-4-p-(beta-pyrrolidinoethoxy)phenyl-7-methoxychroman]", "values": [{"measurement": "IC50", "setting": "[2]; 48 h", "result": "~7.5", "unit": "µM"}, {"measurement": "IC50", "setting": "[2]; 48 hrs", "result": "~7", "unit": "µM"}, {"measurement": "IC50", "setting": "[3]", "result": 25, "unit": "µM"}, {"measurement": "cells expressing cd11b marker", "setting": "[4]; K562, 1.0 uM ORM", "result": "increased percentage of cells expressing CD11b markers"}, {"measurement": "cells expressing cd11b marker", "setting": "[4]; K562, 7.5 uM ORM", "result": "Reduced number of cd11b expressing cells"}, {"measurement": "morphological changes (Giemsa)", "setting": "[5]; K562, 1.0 uM ORM, 12 days", "result": "differentiated cells having neutrophil like morphology were observed"}, {"measurement": "morphological changes (Giemsa)", "setting": "[5]; K562, 5 uM ORM, 72 hrs", "result": "neutrophil like morphological changes"}, {"measurement": "NBT reduction", "setting": "[6]", "result": "dramatic increase in NBT reduction"}, {"measurement": "ROS generation", "setting": "[7]", "result": "Significant upregulation in ROS generation"}, {"measurement": "C/EBP epsilon mRNA expression", "setting": "[8]; [15]", "result": "increased mRNA expression"}, {"measurement": "C/EBPalpha mRNA expression", "setting": "[8]; [15]", "result": "increased mRNA expression"}, {"measurement": "GCSFr mRNA expression", "setting": "[8]; [15]", "result": "increased mRNA expression"}, {"measurement": "cd11b mRNA expression", "setting": "[8]; [15]", "result": "increased mRNA expression"}, {"measurement": "GCSFr mRNA expression", "setting": "[8]; K562, 7.5 uM ORM, 24 h and 48 h, quantitative and semi quantitative PCR", "result": "modest upregulation"}, {"measurement": "level of GCSFr", "setting": "[8]; K562, Reverse transcriptase-PCR (FIG. 4f, g)", "result": "marked increase"}, {"measurement": "expression of cd11b surface marker", "setting": "[9]", "result": "significant upregulation"}, {"measurement": "expression of cd114 surface marker", "setting": "[9]", "result": "significant upregulation"}, {"measurement": "granulocytic/neutrophil like morphology", "setting": "[10]", "result": "large number of cells with multilobed nucleus"}, {"measurement": "granulocytic/neutrophil like morphology", "setting": "[11]", "result": "large number of cells with multilobed nucleus"}, {"measurement": "IC50", "setting": "[12]", "result": 7.5, "unit": "µM"}, {"measurement": "overall response rate", "setting": "[13]; both male and female cases (4 male, 75 female)", "result": 40.5, "unit": "%"}, {"measurement": "overall response rate", "setting": "[13]; female patients", "result": 38.7, "unit": "%"}, {"measurement": "mutagenic effects of DMBA, CP, MMC and EMS", "setting": "[14]", "result": "can reduce the mutagenic effects"}]}]}
